Experimental data from ChEMBL document CHEMBL5131517 (ACS Med Chem Lett, 2022).

Tests used:
Format in all cases: functional, cell-based
[1] = target: T1, 5-hydroxytryptamine receptor 2A (Homo sapiens, UniProt P28223); assay: Agonist activity at human 5HT2A receptor stably expressed in Flp-In-T-REx-293 cells assessed as increase in Gq-mediated calcium flux by Fluo-4 direct dye based FLIPR Tetra assay
[2] = target: T2, 5-hydroxytryptamine receptor 2C (Homo sapiens, UniProt P28335); assay: Agonist activity at human 5HT2C receptor stably expressed in Flp-In-T-REx-293 cells assessed as increase in Gq-mediated calcium flux by Fluo-4 direct dye based FLIPR Tetra assay
T2 sequence (P28335 whole entry): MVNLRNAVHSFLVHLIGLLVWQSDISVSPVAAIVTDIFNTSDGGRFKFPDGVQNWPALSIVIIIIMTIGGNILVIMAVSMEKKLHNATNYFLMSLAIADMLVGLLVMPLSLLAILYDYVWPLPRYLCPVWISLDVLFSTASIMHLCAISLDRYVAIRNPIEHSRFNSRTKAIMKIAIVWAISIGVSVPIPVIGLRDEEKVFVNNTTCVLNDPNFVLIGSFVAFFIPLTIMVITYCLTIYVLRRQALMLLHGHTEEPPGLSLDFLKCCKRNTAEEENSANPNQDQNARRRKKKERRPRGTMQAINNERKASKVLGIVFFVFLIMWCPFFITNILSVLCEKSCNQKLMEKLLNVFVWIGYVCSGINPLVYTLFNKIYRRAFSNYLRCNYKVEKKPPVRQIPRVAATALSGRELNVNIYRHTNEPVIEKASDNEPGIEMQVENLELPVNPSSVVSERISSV

[3] = target: T1, 5-hydroxytryptamine receptor 2A; assay: Agonist activity at human 5HT2A receptor stably expressed in Flp-In-T-REx-293 cells assessed as maximal Gq-mediated calcium flux by Fluo-4 direct dye based FLIPR Tetra assay relative to control
[4] = target: T3, 5-hydroxytryptamine receptor 2C (Homo sapiens) (UniProt P28335); assay: Agonist activity at human 5HT2C receptor stably expressed in Flp-In-T-REx-293 cells assessed as maximal Gq-mediated calcium flux by Fluo-4 direct dye based FLIPR Tetra assay relative to control
T3 sequence (whole entry): T2 sequence (P28335 whole entry)

T1 sequence (P28223 whole entry): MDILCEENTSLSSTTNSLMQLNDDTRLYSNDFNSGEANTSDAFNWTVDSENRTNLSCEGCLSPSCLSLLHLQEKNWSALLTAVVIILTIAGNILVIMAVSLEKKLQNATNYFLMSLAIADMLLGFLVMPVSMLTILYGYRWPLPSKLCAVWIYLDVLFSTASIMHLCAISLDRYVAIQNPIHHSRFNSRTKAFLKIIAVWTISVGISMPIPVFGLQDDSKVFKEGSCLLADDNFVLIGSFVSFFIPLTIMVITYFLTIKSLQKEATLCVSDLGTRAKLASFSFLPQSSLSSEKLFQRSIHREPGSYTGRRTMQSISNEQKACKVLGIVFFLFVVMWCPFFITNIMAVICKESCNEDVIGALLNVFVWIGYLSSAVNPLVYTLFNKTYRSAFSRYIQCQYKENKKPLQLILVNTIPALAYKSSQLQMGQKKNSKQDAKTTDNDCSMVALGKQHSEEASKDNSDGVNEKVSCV

Row | Structure (SMILES) | EC50 [1] [nM] | EC50 ([2]; read-out: EC50) [nM] | Emax ([3]; filed as agonist) [%] | Emax ([4]; filed as agonist) [%] | Emax [3] [%] | Emax [4] [%] | EC50 ([2]; read-out: pEC50 (converted)) [nM]
1 | Fc1ncccc1C1NCCc2c1[nH]c1ccc(Cl)cc21 (stereo not given) | 346 | 1060 | 56.1 | 75.2 |  |  | 
2 | Fc1ccc2[nH]c3c(c2c1)CCNC3c1cncnc1 (stereo not given) |  |  | 95.1 | 101 |  |  | 
3 | Oc1ccc2[nH]c3c(c2c1)CCNC3c1ccccc1Cl (stereo not given) | 1420 |  |  |  | 14.3 |  | 
4 | Oc1ccc2[nH]c3c(c2c1)CCNC3c1cc(Br)ccc1O (stereo not given) | 455 | 194 | 85.9 | 104 |  |  | 
5 | Fc1ccc2[nH]c3c(c2c1)CCNC3c1cc2ccccc2s1 (stereo not given) | 1550 | 912 | 40 | 110 |  |  | 
6 | CCC1NCCc2c1[nH]c1ccc(F)cc21 (stereo not given) | 597 | 200 | 75.4 | 96.2 |  |  | 
7 | Clc1ccc2[nH]c3c(c2c1)CCNC3C1CCOCC1 (stereo not given) | 371 | 295 | 42.8 | 63.8 |  |  | 
8 | Fc1ccccc1C1NCCc2c1[nH]c1ccc(Cl)cc21 (stereo not given) | 8000 | 1160 |  |  | 23.2 | 13.9 | 
9 | CCC1NCCc2c1[nH]c1ccc(O)cc21 (stereo not given) | 195 | 61 | 85.1 | 97.6 |  |  | 
10 | Clc1ccc2[nH]c3c(c2c1)CCNC3c1ccc(Br)s1 (stereo not given) | 912 | 447 | 62.4 | 104 |  |  | 
11 | Fc1ccc2[nH]c3c(c2c1)CCNC3c1nccs1 (stereo not given) |  | 1260 |  |  |  | 39.4 | 
12 | Oc1ccc2[nH]c3c(c2c1)CCNC3c1ccccc1 (stereo not given) | 2510 |  |  |  | 26.3 |  | 
13 | Cc1noc(C)c1C1NCCc2c1[nH]c1ccc(Cl)cc21 (stereo not given) | 513 | 191 | 84.5 | 104 |  |  | 
14 | Oc1ccc2[nH]c3c(c2c1)CCNC3c1ccccc1O (stereo not given) |  |  |  | 103 | 26.9 |  | 
15 | COc1ccc2cc(C3NCCc4c3[nH]c3ccc(F)cc43)ccc2c1 (stereo not given) | 2820 | 3390 |  | 76.3 | 30.5 |  | 
16 | Clc1ccc2[nH]c3c(c2c1)CCNC3Cc1ccccc1 (stereo not given) | 2620 |  | 56.1 |  |  |  | 
17 | Fc1ccc2[nH]c3c(c2c1)CCNC3c1cccnc1F (stereo not given) | 390 | 4030 | 40.9 |  |  | 30.2 | 
18 | CCC1NCCc2c1[nH]c1ccc(Cl)cc21 (stereo not given) | 398 | 7940 | 74.3 | 80.8 |  |  | 
19 | Clc1ccc2[nH]c3c(c2c1)CCNC3c1ccncc1Cl (stereo not given) | 849 | 2810 | 57.1 |  |  | 27.3 | 
20 | CCCC1NCCc2c1[nH]c1ccc(F)cc21 (stereo not given) | > 10000 | > 10000 |  |  |  |  | 
21 | CCCC1NCCc2c1[nH]c1ccc(Cl)cc21 (stereo not given) | 646 | > 10000 | 50.1 |  |  |  | 
22 | Fc1ccc2[nH]c3c(c2c1)CCNC3CCc1ccccc1 (stereo not given) | 812 | 467 |  | 91.3 | 31.7 |  | 
23 | Clc1ccc2[nH]c3c(c2c1)CCNC3c1ccccc1Br (stereo not given) | 403 | 95.2 | 91.4 | 98.4 |  |  | 
24 | Fc1ccc2[nH]c3c(c2c1)CCNC3c1cccs1 (stereo not given) | 409 | 147 |  | 102 | 36.4 |  | 
25 | Oc1ccc2[nH]c3c(c2c1)CCNC3c1ccc(Br)cc1O (stereo not given) | 364 | 173 | 67.8 | 100 |  |  | 
26 | Clc1ccc2[nH]c3c(c2c1)CCNC3C(c1ccccc1)c1ccccc1 (stereo not given) | 1350 | 3240 | 88.1 | 106 |  |  | 0.324
27 | Cc1cccc(C2NCCc3c2[nH]c2ccc(Cl)cc32)c1 (stereo not given) | 481 | 256 | 63.1 | 89.1 |  |  | 
28 | Cc1cc(C2NCCc3c2[nH]c2ccc(Cl)cc32)sc1Br (stereo not given) | 776 | 173 | 97.1 | 118 |  |  | 
29 | NCCc1c[nH]c2ccc(O)cc12 |  |  | 100 |  |  |  | 
30 | Fc1ccc2[nH]c3c(c2c1)CCNC3Cc1ccccc1 (stereo not given) | 1330 |  | 44.4 |  |  |  | 

Continued, values first:

Row | EC50 [1] [nM] | EC50 ([2]; read-out: EC50) [nM] | Emax ([3]; filed as agonist) [%] | Emax ([4]; filed as agonist) [%] | Emax [3] [%] | Emax [4] [%] | EC50 ([2]; read-out: pEC50 (converted)) [nM] | Structure (SMILES)
31 | 79 | 97 | 100 | 87.1 |  |  |  | Cn1ccnc1C1NCCc2c1[nH]c1ccc(O)cc21 (stereo not given)
32 | 1.5 | 1.9 | 91.2 | 102 |  |  |  | Oc1ccc(C2NCCc3c2[nH]c2ccc(Cl)cc32)c(O)c1 (stereo not given)
33 | 51.7 | 15.3 | 92.7 | 103 |  |  |  | Oc1ccccc1C1NCCc2c1[nH]c1ccc(Cl)cc21 (stereo not given)
34 | 223 | 148 | 93.4 | 95.4 |  |  |  | Oc1cccc(C2NCCc3c2[nH]c2ccc(O)cc32)c1 (stereo not given)
35 | 3.8 | 7.6 | 102 | 109 |  |  |  | COc1cc(OC)c(C2NCCc3c2[nH]c2ccc(O)cc32)cc1OC (stereo not given)
36 | 12.8 | 12.6 | 95.3 | 109 |  |  |  | Clc1ccc2[nH]c3c(c2c1)CCNC3c1ccccc1Cl (stereo not given)
37 | 74.5 | 68.6 | 97.9 | 107 |  |  |  | Oc1c(Br)cccc1C1NCCc2c1[nH]c1ccc(Cl)cc21 (stereo not given)
38 | 281 | 959 | 74.1 |  |  | 28.4 |  | Oc1ccc2[nH]c3c(c2c1)CCNC3C1CCCCC1 (stereo not given)
39 | 91.2 | 20.4 | 87.3 | 103 |  |  |  | Fc1ccc2[nH]c3c(c2c1)CCNC3C1CCCCC1 (stereo not given)
40 | 312 | 1130 |  | 95 | 11.2 |  |  | Cc1ccc(C2NCCc3c2[nH]c2ccc(O)cc32)cc1 (stereo not given)
41 | 126 | 75.4 | 43.1 | 94.3 |  |  |  | COc1ccccc1C1NCCc2c1[nH]c1ccc(F)cc21 (stereo not given)
42 | 288 | 481 | 59.2 | 100 |  |  |  | Oc1ccc2[nH]c3c(c2c1)CCNC3Cc1ccccc1 (stereo not given)
43 | 269 |  |  |  | 21.5 |  |  | COc1ccccc1C1NCCc2c1[nH]c1ccc(O)cc21 (stereo not given)
44 | 93.8 | 105 | 103 | 99.4 |  |  |  | Oc1ccc(C2NCCc3c2[nH]c2ccc(Cl)cc32)cc1 (stereo not given)
45 | 159 | 152 | 80 | 99.4 |  |  |  | Oc1ccc(C2NCCc3c2[nH]c2ccc(O)cc32)cc1 (stereo not given)
46 | 208 | 2060 |  | 85.4 | 39.9 |  |  | Cc1ccc(C2NCCc3c2[nH]c2ccc(F)cc32)cc1 (stereo not given)
47 | 244 | 191 | 60.9 | 99.1 |  |  |  | Cc1cccc(C2NCCc3c2[nH]c2ccc(O)cc32)c1 (stereo not given)

Row | EC50 [1] [nM] | EC50 ([2]; read-out: EC50) [nM] | Emax ([3]; filed as agonist) [%] | Emax ([4]; filed as agonist) [%] | Emax [3] [%] | Emax [4] [%] | EC50 ([2]; read-out: pEC50 (converted)) [nM] | Structure (SMILES)
48 | 58.2 | 29.8 | 99.9 | 104 |  |  | 30.2 | Oc1ccc(C2NCCc3c2[nH]c2ccc(F)cc32)cc1 (stereo not given)
49 | 303 | 62.5 | 94.1 | 97.2 |  |  |  | Cc1ccc(C2NCCc3c2[nH]c2ccc(Cl)cc32)cc1 (stereo not given)
50 | 160 | 306 |  | 114 | 39.9 |  |  | Cc1cccc(C2NCCc3c2[nH]c2ccc(F)cc32)c1 (stereo not given)
51 | 98 | 2100 |  | 75.1 | 10.5 |  |  | Fc1ccc2[nH]c3c(c2c1)CCNC3c1ccccc1Br (stereo not given)
52 | 278 | 872 |  | 88.1 | 28.1 |  |  | Fc1ccc2[nH]c3c(c2c1)CCNC3c1ccccc1Cl (stereo not given)
53 | 248 | 68.9 | 83.9 | 98 |  |  |  | Clc1ccc2[nH]c3c(c2c1)CCNC3c1ccccc1 (stereo not given)
54 | 207 | 284 | 41.6 | 82.9 |  |  |  | COc1ccccc1C1NCCc2c1[nH]c1ccc(Cl)cc21 (stereo not given)
55 | 26 | 4.3 | 96.2 | 100 |  |  |  | Oc1ccccc1C1NCCc2c1[nH]c1ccc(F)cc21 (stereo not given)
56 | 195 | 186 | 79.1 | 103 |  |  |  | Fc1ccc2[nH]c3c(c2c1)CCNC3c1ccc2ccccc2c1 (stereo not given)
57 | 116 | 66.5 | 93.1 | 109 |  |  |  | Oc1c(Br)cccc1C1NCCc2c1[nH]c1ccc(F)cc21 (stereo not given)
58 | 295 | 95.5 | 59.9 | 98.5 |  |  |  | Clc1ccc2[nH]c3c(c2c1)CCNC3C1CCCCC1 (stereo not given)
59 | 216 | 77 | 88.4 | 101 |  |  |  | Oc1ccc2[nH]c3c(c2c1)CCNC3c1cc(F)ccc1O (stereo not given)
60 | 239 | 50.1 | 90.7 | 111 |  |  |  | Cc1noc(C)c1C1NCCc2c1[nH]c1ccc(F)cc21 (stereo not given)
61 | 23 | 13.2 | 91.4 | 102 |  |  |  | Oc1ccc2[nH]c3c(c2c1)CCNC3c1ccccc1F (stereo not given)
62 | 208 | 130 | 83.2 | 123 |  |  |  | Oc1cccc(C2NCCc3c2[nH]c2ccc(F)cc32)c1 (stereo not given)
63 | 139 |  | 45.8 |  |  |  |  | Oc1ccc2[nH]c3c(c2c1)CCNC3CCc1ccccc1 (stereo not given)
